One may read the EC50 as the concentration that produces a half-maximal response. As usually defined, the IC50 is the concentration that gives 50% inhibition.

Structures are written as SMILES. Where two headings read alike, the source gives them in different places.

Here are results for 39 molecules from US9139532B2, “Pyrazolyl guanidine F1F0-atpase inhibitors and therapeutic uses thereof” (Lycera Corporation, priority 2010, dated 2015).

For one test, the system named is Ramos cells. Description: Cytotoxicity in Ramos cells. It counts as cell-based. Conditions: cytotoxicity in Ramos cells, read-out: Ramos Cell EC50.
The next test concerns the target T1, F1F0-ATPase (Bos taurus, UniProt P13621).
T1 construct: from tissue
The test is described as follows: Inhibition of F1F0-ATPase activity in synthesizing ATP. It counts as biochemical. Conditions: inhibition of ATP synthesis by F1F0-ATPase; read-out: ATP Syn IC50.

For `O=C(/N=C(/Nc1cc(C(F)(F)F)n[nH]1)NC1CCCC1)c1ccc(F)c(F)c1` [Compound A-100], the EC50 with Ramos cells (Homo sapiens) was under 10 µM. On F1F0-ATPase, the IC50 is under 10 µM.
For the molecule `CCC(C)(C)N/C(=N/C(=O)c1ccc(F)c(F)c1)Nc1cc(C(F)(F)F)n[nH]1` [Compound A-101], the EC50 with Ramos cells (Homo sapiens) was under 10 µM. For the same molecule, at F1F0-ATPase, the IC50 is under 10 µM.
For `C[C@@H](N/C(=N\C(=O)c1ccc(F)c(F)c1)Nc1cc(C(F)(F)F)n[nH]1)C1CCCCC1` [Compound A-102], in the test with Ramos cells (Homo sapiens), the EC50 is under 10 µM. Also, at F1F0-ATPase, the IC50 was under 10 µM.
`O=C(/N=C(/Nc1cc(C(F)(F)F)n[nH]1)NC1CCOC1)c1ccc(F)c(F)c1` (stereo not drawn) [Compound A-103]: the EC50 with Ramos cells (Homo sapiens) was under 10 µM. Also, the IC50 on F1F0-ATPase is under 10 µM.
As for `O=C(/N=C(\Nc1cc(C(F)(F)F)n[nH]1)NC1CCOCC1)c1ccc(F)c(F)c1` [Compound A-104], the EC50 in the test on Ramos cells (Homo sapiens) is over 10 µM. Further, on F1F0-ATPase, the IC50 is under 10 µM.
Regarding `O=C(/N=C(\Nc1cc(C(F)(F)F)n[nH]1)NC1CCCOC1)c1ccc(F)c(F)c1` (stereo not drawn) [Compound A-105], the EC50 with Ramos cells (Homo sapiens) was under 10 µM. In addition, on F1F0-ATPase, the IC50 was under 10 µM.
For the molecule `COCC(C)N/C(=N/C(=O)c1ccc(F)c(F)c1)Nc1cc(C(F)(F)F)n[nH]1` (stereo not drawn) [Compound A-106], in the test with Ramos cells (Homo sapiens), the EC50 is under 10 µM. Also, the IC50 at F1F0-ATPase is under 10 µM.
`CC(C)N/C(=N/C(=O)c1ccc(Cl)cc1)Nc1cc(C(F)(F)F)n[nH]1` [Compound A-107]: in the test with Ramos cells (Homo sapiens), the EC50 was under 10 µM. On F1F0-ATPase, the IC50 is under 10 µM.
`O=C(/N=C(\Nc1cc(C(F)(F)F)n[nH]1)NC1CCC1)c1ccc(Cl)cc1` [Compound A-108]: the EC50 with Ramos cells (Homo sapiens) was under 10 µM. The IC50 on F1F0-ATPase is under 10 µM.
Turning to `C[C@H](N/C(=N\C(=O)c1ccc(Cl)cc1)Nc1cc(C(F)(F)F)n[nH]1)C1CCCCC1` [Compound A-109], the EC50 with Ramos cells (Homo sapiens) is under 10 µM. For the same molecule, the IC50 at F1F0-ATPase is under 10 µM.
Consider `O=C(/N=C(\Nc1cc(C(F)(F)F)n[nH]1)NC1CCCOC1)c1ccc(Cl)cc1` (stereo not drawn) [Compound A-110], for which the EC50 with Ramos cells (Homo sapiens) was under 10 µM. In addition, on F1F0-ATPase, the IC50 is under 10 µM.
Consider `COCC(C)N/C(=N/C(=O)c1ccc(Cl)cc1)Nc1cc(C(F)(F)F)n[nH]1` (stereo not drawn) [Compound A-111], for which the EC50 in the test with Ramos cells (Homo sapiens) was under 10 µM. Moreover, at F1F0-ATPase, the IC50 was under 10 µM.
Consider `O=C(/N=C(/Nc1cc(C(F)(F)F)n[nH]1)NC1CCS(=O)(=O)C1)c1ccc(Cl)cc1` (stereo not drawn) [Compound A-112], for which the EC50 with Ramos cells (Homo sapiens) is over 10 µM. In addition, the IC50 on F1F0-ATPase is under 10 µM.
As for `CC(C)N/C(=N/C(=O)c1ccc(Cl)c(F)c1)Nc1cc(C(F)(F)F)n[nH]1` [Compound A-113], the EC50 in the test on Ramos cells (Homo sapiens) was under 10 µM. Further, the IC50 on F1F0-ATPase is under 10 µM.
Turning to `O=C(/N=C(\Nc1cc(C(F)(F)F)n[nH]1)NC1CCC1)c1ccc(Cl)c(F)c1` [Compound A-114], the EC50 in the test with Ramos cells (Homo sapiens) was under 10 µM. Besides, the IC50 at F1F0-ATPase is under 10 µM.
For the molecule `O=C(/N=C(/Nc1cc(C(F)(F)F)n[nH]1)NC1CCCC1)c1ccc(Cl)c(F)c1` [Compound A-115], the EC50 in the test on Ramos cells (Homo sapiens) is under 10 µM. Besides, the IC50 at F1F0-ATPase was under 10 µM.
On to `CCC(C)(C)N/C(=N/C(=O)c1ccc(Cl)c(F)c1)Nc1cc(C(F)(F)F)n[nH]1` [Compound A-116], for which, in the test on Ramos cells (Homo sapiens), the EC50 is under 10 µM. Moreover, at F1F0-ATPase, the IC50 was under 10 µM.
`C[C@@H](N/C(=N\C(=O)c1ccc(Cl)c(F)c1)Nc1cc(C(F)(F)F)n[nH]1)C1CCCCC1` [Compound A-117]: in the test on Ramos cells (Homo sapiens), the EC50 is under 10 µM. The IC50 on F1F0-ATPase was under 10 µM.
As to `O=C(/N=C(\Nc1cc(C(F)(F)F)n[nH]1)NC1CCOCC1)c1ccc(Cl)c(F)c1` [Compound A-118], the EC50 in the test on Ramos cells (Homo sapiens) is under 10 µM. On F1F0-ATPase, the IC50 was under 10 µM.
Turning to `O=C(/N=C(\Nc1cc(C(F)(F)F)n[nH]1)NC1CCCOC1)c1ccc(Cl)c(F)c1` (stereo not drawn) [Compound A-119], the EC50 in the test on Ramos cells (Homo sapiens) was under 10 µM. Also, on F1F0-ATPase, the IC50 was under 10 µM.
With `COCC(C)N/C(=N/C(=O)c1ccc(Cl)c(F)c1)Nc1cc(C(F)(F)F)n[nH]1` (stereo not drawn) [Compound A-120], the EC50 in the test on Ramos cells (Homo sapiens) is under 10 µM. Moreover, the IC50 at F1F0-ATPase was under 10 µM.
Regarding `O=C(/N=C(/Nc1cc(C(F)(F)F)n[nH]1)NC1CCS(=O)(=O)C1)c1ccc(Cl)c(F)c1` (stereo not drawn) [Compound A-121], the EC50 in the test with Ramos cells (Homo sapiens) is over 10 µM. For the same molecule, the IC50 on F1F0-ATPase was under 10 µM.
The matching figures for `O=C(/N=C(\Nc1cc(C(F)(F)F)[nH]n1)NC1CCCC1)c1ccc(Cl)cc1` [Compound A-122]: under 10 µM and under 10 µM.
`CCC(C)(C)N/C(=N/C(=O)c1ccc(Cl)cc1)Nc1cc(C(F)(F)F)[nH]n1` [Compound A-123]: the EC50 with Ramos cells (Homo sapiens) is under 10 µM. Moreover, on F1F0-ATPase, the IC50 was under 10 µM.
Turning to `O=C(/N=C(\Nc1cc(C(F)(F)F)[nH]n1)NC1CCOCC1)c1ccc(Cl)cc1` [Compound A-124], in the test on Ramos cells (Homo sapiens), the EC50 was over 10 µM. In addition, on F1F0-ATPase, the IC50 was under 10 µM.
In the case of `Cc1cc(N/C(=N\C(=O)c2ccc(C(F)(F)F)cc2)NC(C)(C)C)n[nH]1` [Compound A-125], in the test with Ramos cells, the EC50 was under 10 µM. The IC50 at F1F0-ATPase was under 10 µM.
For the molecule `Cc1ccc(-c2cc(N/C(=N\C(=O)c3ccc(F)c(F)c3)Nc3cc(F)cc(Cl)c3)n[nH]2)cc1F` [Compound A-126], in the test on Ramos cells, the EC50 is over 10 µM. Further, the IC50 on F1F0-ATPase was over 10 µM.
For the molecule `CC(C)NC(=NC(=O)c1cccc(C#N)c1)Nc1cc(-c2ccc(F)cc2)n[nH]1` [Compound A-127], the EC50 with Ramos cells (Homo sapiens) is over 10 µM. On F1F0-ATPase, the IC50 is under 10 µM.
In the case of `CC(C)(C)N/C(=N/C(=O)c1cccc(C(F)(F)F)c1)Nc1cc(-c2cccc(Cl)c2)[nH]n1` [Compound A-128], the EC50 in the test on Ramos cells is under 10 µM. For the same molecule, the IC50 at F1F0-ATPase was under 10 µM.
Take `CC(C)(C)N/C(=N/C(=O)c1cccc(Cl)c1)Nc1cc(-c2cccc(Cl)c2)[nH]n1` [Compound A-129]: the EC50 in the test on Ramos cells is under 10 µM. In addition, the IC50 on F1F0-ATPase was under 10 µM.
With `CC(C)(C)NC(=NC(=O)c1cccc(Cl)c1)Nc1cc(-c2ccc(Cl)cc2)n[nH]1` [Compound A-130], the EC50 in the test on Ramos cells (Homo sapiens) is under 10 µM. The IC50 on F1F0-ATPase was under 10 µM.
`CC(C)(C)NC(=NC(=O)c1ccc(Cl)cc1)Nc1cc(-c2cccc(Cl)c2)[nH]n1` [Compound A-131]: the EC50 with Ramos cells (Homo sapiens) was under 10 µM. Moreover, the IC50 on F1F0-ATPase is under 10 µM.
Take `CC(C)(C)NC(=NC(=O)c1ccc(Cl)cc1)Nc1cc(-c2ccc(Cl)cc2)n[nH]1` [Compound A-132]: in the test on Ramos cells (Homo sapiens), the EC50 is under 10 µM. Besides, the IC50 on F1F0-ATPase was under 10 µM.
With `CC(C)(C)NC(=NC(=O)c1cccc(F)c1)Nc1cc(-c2ccc(Cl)cc2)n[nH]1` [Compound A-133], in the test on Ramos cells (Homo sapiens), the EC50 is under 10 µM. For the same molecule, the IC50 on F1F0-ATPase was under 10 µM.
As to `CC(C)(C)N/C(=N/C(=O)c1ccc(F)cc1)Nc1cc(-c2cccc(Cl)c2)[nH]n1` [Compound A-134], the EC50 in the test with Ramos cells was under 10 µM. In addition, on F1F0-ATPase, the IC50 was under 10 µM.
Consider `CC(C)(C)NC(=NC(=O)c1ccc(F)cc1)Nc1cc(-c2ccc(Cl)cc2)n[nH]1` [Compound A-135], for which the EC50 in the test with Ramos cells (Homo sapiens) was under 10 µM. In addition, the IC50 on F1F0-ATPase is under 10 µM.
On to `CC(C)(C)N/C(=N/C(=O)c1ccc(F)c(F)c1)Nc1cc(-c2cccc(Cl)c2)[nH]n1` [Compound A-136], for which, in the test on Ramos cells, the EC50 is under 10 µM. At F1F0-ATPase, the IC50 is under 10 µM.
As for `CC(C)(C)N/C(=N/C(=O)c1ccc(F)c(F)c1)Nc1cc(-c2ccc(Cl)cc2)[nH]n1` [Compound A-137], the EC50 in the test on Ramos cells was under 10 µM. The IC50 at F1F0-ATPase is under 10 µM.
Turning to `CC(C)(C)N/C(=N/C(=O)c1ccc(C(F)(F)F)cc1)Nc1cc(-c2ccc(Cl)cc2)[nH]n1` [Compound A-138], the EC50 in the test with Ramos cells was under 10 µM. The IC50 on F1F0-ATPase was under 10 µM.
